The text below walks through data of patent US9868772B2 (INDIANA UNIVERSITY RESEARCH AND TECHNOLOGY CORPORATION, priority 2012, dated 2018).

pEC50: −log10 of the molar value. Numbered stars: 1 amine (or outer) side, 2 acyl side, 3 side chain; on linkers, the order of the positions; unused ones are H or OH. Square brackets hold non-standard residues; d marks the D form. Side chains are listed from the residue outwards. Peptide text beside a SMILES is read from it. * marks the point of attachment. γGlu = O=C(O)[C@H](CCC(=O)[*:2])N[*:1]; Palmitoyl = CCCCCCCCCCCCCCCC(=O)*; 2Thi = N[C@@H](Cc1cccs1)C(=O)O; βAla = NCCC(=O)O; Sar = CNCC(=O)O

Test in all cases: cAMP induction, firefly luciferase reporter assay in HEK293 cells co-transfected with receptor
Common to all, as to type: cell-based
Common to all, as to conditions: Table 1, analogs of SEQ ID NO: 37
(In general: In a reporter assay the amount or activity of a reporter protein is the signal.)

One test deals with T1, glucagon receptor (Homo sapiens, UniProt P47871).
T1 construct: expressed in transfected cells; host or cells: HEK293
T1 sequence (P47871 26-477): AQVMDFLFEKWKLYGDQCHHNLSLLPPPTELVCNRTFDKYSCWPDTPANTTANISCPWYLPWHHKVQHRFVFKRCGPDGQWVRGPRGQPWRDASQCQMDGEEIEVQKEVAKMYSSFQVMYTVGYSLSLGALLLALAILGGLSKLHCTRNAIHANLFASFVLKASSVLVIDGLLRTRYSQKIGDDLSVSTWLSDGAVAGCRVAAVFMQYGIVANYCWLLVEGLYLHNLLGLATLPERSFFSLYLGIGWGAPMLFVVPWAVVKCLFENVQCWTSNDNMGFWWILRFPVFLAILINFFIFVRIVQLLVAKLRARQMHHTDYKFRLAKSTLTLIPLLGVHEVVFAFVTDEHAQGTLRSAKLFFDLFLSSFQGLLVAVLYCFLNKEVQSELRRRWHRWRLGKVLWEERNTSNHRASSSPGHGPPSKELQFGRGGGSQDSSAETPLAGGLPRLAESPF
Here is the method:
(§1) The ability of glucagon analogs to induce cAMP was measured in a firefly luciferase-based reporter assay. […] At the end of the incubation 100 microliters of LucLite luminescence substrate reagent (Perkin-Elmer, Wellesley, Mass.) were added to each well. […] Effective 50% concentrations were calculated by using Origin software (OriginLab, Northampton, Mass.

The next test addresses T2, GLP-1 receptor (Homo sapiens, UniProt P43220).
T2 construct: expressed in transfected cells; host or cells: HEK293
Here is the method: as §1

Another test concerns the target T3, GIP receptor (Homo sapiens, UniProt P48546).
T3 construct: expressed in transfected cells; host or cells: HEK293
T3 sequence (P48546 22-466): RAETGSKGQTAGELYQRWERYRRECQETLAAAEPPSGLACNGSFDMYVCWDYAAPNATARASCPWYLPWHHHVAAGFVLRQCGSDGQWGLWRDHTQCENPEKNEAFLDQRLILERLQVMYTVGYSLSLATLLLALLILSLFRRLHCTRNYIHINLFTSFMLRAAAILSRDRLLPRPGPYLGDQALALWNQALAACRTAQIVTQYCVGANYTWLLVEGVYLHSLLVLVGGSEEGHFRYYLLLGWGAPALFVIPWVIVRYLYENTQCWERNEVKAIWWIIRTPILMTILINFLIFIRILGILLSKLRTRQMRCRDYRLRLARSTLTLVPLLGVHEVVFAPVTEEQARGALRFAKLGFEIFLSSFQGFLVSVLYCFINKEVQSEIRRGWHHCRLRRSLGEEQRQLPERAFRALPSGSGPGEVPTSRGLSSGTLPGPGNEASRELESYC
Here is the method:
as §1

T2 sequence (P43220 24-463): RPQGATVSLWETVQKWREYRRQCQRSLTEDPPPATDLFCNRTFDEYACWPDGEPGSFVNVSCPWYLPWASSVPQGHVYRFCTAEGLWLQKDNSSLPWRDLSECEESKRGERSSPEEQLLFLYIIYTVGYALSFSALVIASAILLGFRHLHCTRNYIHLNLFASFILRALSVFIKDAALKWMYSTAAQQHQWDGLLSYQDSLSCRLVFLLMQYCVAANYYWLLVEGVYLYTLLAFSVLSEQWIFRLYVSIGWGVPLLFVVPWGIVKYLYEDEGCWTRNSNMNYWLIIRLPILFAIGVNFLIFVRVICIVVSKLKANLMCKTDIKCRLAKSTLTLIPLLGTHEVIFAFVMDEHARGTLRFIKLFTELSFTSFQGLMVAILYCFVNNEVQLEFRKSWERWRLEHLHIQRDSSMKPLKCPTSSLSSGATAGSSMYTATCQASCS

As to `CCCCCCCCCCCCCCCC(=O)N[C@@H](CCC(=O)NCCCC[C@H](NC(=O)[C@H](CC(=O)O)NC(=O)[C@H](CO)NC(=O)[C@@H](NC(=O)[C@H](Cc1ccccc1)NC(=O)[C@@H](NC(=O)CNC(=O)[C@H](CCC(N)=O)NC(=O)CNC(=O)[C@H](N)Cc1c[nH]cn1)[C@@H](C)O)[C@@H](C)O)C(=O)N[C@@H](CO)C(=O)N[C@@H](CCCCN)C(=O)N[C@@H](Cc1ccc(O)cc1)C(=O)N[C@@H](CC(C)C)C(=O)N[C@@H](CC(=O)O)C(=O)N[C@@H](CCC(=O)O)C(=O)N[C@@H](CCCNC(=N)N)C(=O)N[C@@H](C)C(=O)N[C@@H](C)C(=O)N[C@@H](CCC(N)=O)C(=O)N[C@@H](CC(=O)O)C(=O)N[C@@H](Cc1ccccc1)C(=O)N[C@H](C(=O)N[C@@H](CCC(N)=O)C(=O)N[C@@H](Cc1c[nH]c2ccccc12)C(=O)N[C@@H](CC(C)C)C(=O)N[C@@H](CC(C)C)C(=O)N[C@@H](CCC(=O)O)C(=O)NCC(=O)NCC(=O)N1CCC[C@H]1C(=O)N[C@@H](CO)C(=O)N[C@@H](CO)C(=O)NCC(=O)N[C@@H](C)C(=O)N1CCC[C@H]1C(=O)N1CCC[C@H]1C(=O)N1CCC[C@H]1C(=O)N[C@@H](CO)C(N)=O)C(C)C)C(=O)O` [compound 23] (H-[dH]GQGTFTSDK([γGlu-Palmitoyl])SKYLDERAAQDFVQWLLEGGPSSGAPPPS-NH2; N-terminus assumed), the values for the pEC50 on glucagon receptor, at GLP-1 receptor and on GIP receptor were 10.82, 11.52 and 10.37, respectively.
Consider `CCCCCCCCCCCCCCCC(=O)N[C@@H](CCC(=O)NCCCC[C@H](NC(=O)[C@H](CC(=O)O)NC(=O)[C@H](CO)NC(=O)[C@@H](NC(=O)[C@H](Cc1ccccc1)NC(=O)[C@@H](NC(=O)CNC(=O)[C@H](CCC(N)=O)NC(=O)[C@H](C)NC(=O)C(CN)Cc1c[nH]cn1)[C@@H](C)O)[C@@H](C)O)C(=O)N[C@@H](CO)C(=O)N[C@@H](CCCCN)C(=O)N[C@@H](Cc1ccc(O)cc1)C(=O)N[C@@H](CC(C)C)C(=O)N[C@@H](CC(=O)O)C(=O)N[C@@H](CCC(=O)O)C(=O)N[C@@H](CCCNC(=N)N)C(=O)N[C@@H](C)C(=O)N[C@@H](C)C(=O)N[C@@H](CCC(N)=O)C(=O)N[C@@H](CC(=O)O)C(=O)N[C@@H](Cc1ccccc1)C(=O)N[C@H](C(=O)N[C@@H](CCC(N)=O)C(=O)N[C@@H](Cc1c[nH]c2ccccc12)C(=O)N[C@@H](CC(C)C)C(=O)N[C@@H](CC(C)C)C(=O)N[C@@H](CCC(=O)O)C(=O)NCC(=O)NCC(=O)N1CCC[C@H]1C(=O)N[C@@H](CO)C(=O)N[C@@H](CO)C(=O)NCC(=O)N[C@@H](C)C(=O)N1CCC[C@H]1C(=O)N1CCC[C@H]1C(=O)N1CCC[C@H]1C(=O)N[C@@H](CO)C(N)=O)C(C)C)C(=O)O` (stereo partly drawn) [compound 25], for which the pEC50 (commonly the EC50 on a negative log10 scale, so that one unit is a factor of ten) at glucagon receptor is 10.62; on GLP-1 receptor, 11.52; on GIP receptor, 10.19.
On to `CCCCCCCCCCCCCCCC(=O)N[C@@H](CCC(=O)NCCCC[C@H](NC(=O)[C@H](CC(=O)O)NC(=O)[C@H](CO)NC(=O)[C@@H](NC(=O)[C@H](Cc1ccccc1)NC(=O)[C@@H](NC(=O)CNC(=O)[C@H](CCC(N)=O)NC(=O)CCNC(=O)[C@@H](N)Cc1c[nH]cn1)[C@@H](C)O)[C@@H](C)O)C(=O)N[C@@H](CO)C(=O)N[C@@H](CCCCN)C(=O)N[C@@H](Cc1ccc(O)cc1)C(=O)N[C@@H](CC(C)C)C(=O)N[C@@H](CC(=O)O)C(=O)N[C@@H](CCC(=O)O)C(=O)N[C@@H](CCCNC(=N)N)C(=O)N[C@@H](C)C(=O)N[C@@H](C)C(=O)N[C@@H](CCC(N)=O)C(=O)N[C@@H](CC(=O)O)C(=O)N[C@@H](Cc1ccccc1)C(=O)N[C@H](C(=O)N[C@@H](CCC(N)=O)C(=O)N[C@@H](Cc1c[nH]c2ccccc12)C(=O)N[C@@H](CC(C)C)C(=O)N[C@@H](CC(C)C)C(=O)N[C@@H](CCC(=O)O)C(=O)NCC(=O)NCC(=O)N1CCC[C@H]1C(=O)N[C@@H](CO)C(=O)N[C@@H](CO)C(=O)NCC(=O)N[C@@H](C)C(=O)N1CCC[C@H]1C(=O)N1CCC[C@H]1C(=O)N1CCC[C@H]1C(=O)N[C@@H](CO)C(N)=O)C(C)C)C(=O)O` [compound 26] (H-H[βAla]QGTFTSDK([γGlu-Palmitoyl])SKYLDERAAQDFVQWLLEGGPSSGAPPPS-NH2), for which the pEC50 at glucagon receptor was 10.02; at GLP-1 receptor, 11.70; on GIP receptor it was 10.15.
`CCCCCCCCCCCCCCCC(=O)N[C@@H](CCC(=O)NCCCC[C@H](NC(=O)[C@H](CC(=O)O)NC(=O)[C@H](CO)NC(=O)[C@@H](NC(=O)[C@H](Cc1ccccc1)NC(=O)[C@@H](NC(=O)CNC(=O)[C@H](CCC(N)=O)NC(=O)[C@@H]1CCCN1C(=O)[C@H](N)Cc1c[nH]cn1)[C@@H](C)O)[C@@H](C)O)C(=O)N[C@@H](CO)C(=O)N[C@@H](CCCCN)C(=O)N[C@@H](Cc1ccc(O)cc1)C(=O)N[C@@H](CC(C)C)C(=O)N[C@@H](CC(=O)O)C(=O)N[C@@H](CCC(=O)O)C(=O)N[C@@H](CCCNC(=N)N)C(=O)N[C@@H](C)C(=O)N[C@@H](C)C(=O)N[C@@H](CCC(N)=O)C(=O)N[C@@H](CC(=O)O)C(=O)N[C@@H](Cc1ccccc1)C(=O)N[C@H](C(=O)N[C@@H](CCC(N)=O)C(=O)N[C@@H](Cc1c[nH]c2ccccc12)C(=O)N[C@@H](CC(C)C)C(=O)N[C@@H](CC(C)C)C(=O)N[C@@H](CCC(=O)O)C(=O)NCC(=O)NCC(=O)N1CCC[C@H]1C(=O)N[C@@H](CO)C(=O)N[C@@H](CO)C(=O)NCC(=O)N[C@@H](C)C(=O)N1CCC[C@H]1C(=O)N1CCC[C@H]1C(=O)N1CCC[C@H]1C(=O)N[C@@H](CO)C(N)=O)C(C)C)C(=O)O` [compound 27] (H-[dH]PQGTFTSDK([γGlu-Palmitoyl])SKYLDERAAQDFVQWLLEGGPSSGAPPPS-NH2; N-terminus assumed): the pEC50 on glucagon receptor was 10.47; on GLP-1 receptor it was 11.52; at GIP receptor, 10.10.
Taken in the same sequence, the figures for `CCCCCCCCCCCCCCCC(=O)N[C@@H](CCC(=O)NCCCC[C@H](NC(=O)[C@H](CC(=O)O)NC(=O)[C@H](CO)NC(=O)[C@@H](NC(=O)[C@H](Cc1ccccc1)NC(=O)[C@@H](NC(=O)CNC(=O)[C@H](CCC(N)=O)NC(=O)CN(C)C(=O)[C@@H](N)Cc1c[nH]cn1)[C@@H](C)O)[C@@H](C)O)C(=O)N[C@@H](CO)C(=O)N[C@@H](CCCCN)C(=O)N[C@@H](Cc1ccc(O)cc1)C(=O)N[C@@H](CC(C)C)C(=O)N[C@@H](CC(=O)O)C(=O)N[C@@H](CCC(=O)O)C(=O)N[C@@H](CCCNC(=N)N)C(=O)N[C@@H](C)C(=O)N[C@@H](C)C(=O)N[C@@H](CCC(N)=O)C(=O)N[C@@H](CC(=O)O)C(=O)N[C@@H](Cc1ccccc1)C(=O)N[C@H](C(=O)N[C@@H](CCC(N)=O)C(=O)N[C@@H](Cc1c[nH]c2ccccc12)C(=O)N[C@@H](CC(C)C)C(=O)N[C@@H](CC(C)C)C(=O)N[C@@H](CCC(=O)O)C(=O)NCC(=O)NCC(=O)N1CCC[C@H]1C(=O)N[C@@H](CO)C(=O)N[C@@H](CO)C(=O)NCC(=O)N[C@@H](C)C(=O)N1CCC[C@H]1C(=O)N1CCC[C@H]1C(=O)N1CCC[C@H]1C(=O)N[C@@H](CO)C(N)=O)C(C)C)C(=O)O` [compound 28] (H-H[Sar]QGTFTSDK([γGlu-Palmitoyl])SKYLDERAAQDFVQWLLEGGPSSGAPPPS-NH2) were 10.66, 11.70 and 10.09.
Take `CCCCCCCCCCCCCCCC(=O)N[C@@H](CCC(=O)NCCCC[C@H](NC(=O)[C@H](CC(=O)O)NC(=O)[C@H](CO)NC(=O)[C@@H](NC(=O)[C@H](Cc1ccccc1)NC(=O)[C@@H](NC(=O)CNC(=O)[C@H](CCC(N)=O)NC(=O)CNC(=O)[C@@H](N)Cc1cccs1)[C@@H](C)O)[C@@H](C)O)C(=O)N[C@@H](CO)C(=O)N[C@@H](CCCCN)C(=O)N[C@@H](Cc1ccc(O)cc1)C(=O)N[C@@H](CC(C)C)C(=O)N[C@@H](CC(=O)O)C(=O)N[C@@H](CCC(=O)O)C(=O)N[C@@H](CCCNC(=N)N)C(=O)N[C@@H](C)C(=O)N[C@@H](C)C(=O)N[C@@H](CCC(N)=O)C(=O)N[C@@H](CC(=O)O)C(=O)N[C@@H](Cc1ccccc1)C(=O)N[C@H](C(=O)N[C@@H](CCC(N)=O)C(=O)N[C@@H](Cc1c[nH]c2ccccc12)C(=O)N[C@@H](CC(C)C)C(=O)N[C@@H](CC(C)C)C(=O)N[C@@H](CCC(=O)O)C(=O)NCC(=O)NCC(=O)N1CCC[C@H]1C(=O)N[C@@H](CO)C(=O)N[C@@H](CO)C(=O)NCC(=O)N[C@@H](C)C(=O)N1CCC[C@H]1C(=O)N1CCC[C@H]1C(=O)N1CCC[C@H]1C(=O)N[C@@H](CO)C(N)=O)C(C)C)C(=O)O` [compound 29] (H-[2Thi]GQGTFTSDK([γGlu-Palmitoyl])SKYLDERAAQDFVQWLLEGGPSSGAPPPS-NH2; N-terminus assumed): the figures for the pEC50 on glucagon receptor, at GLP-1 receptor and at GIP receptor were 10.42, 11.15 and 10.02, respectively.
